In PMC3371024, “A Novel 5-Enolpyruvylshikimate-3-Phosphate Synthase Shows High Glyphosate Tolerance in Escherichia coli and Tobacco Plants” (PLoS ONE, 2012):

How the values were obtained:
AM79 EPSPS [1] = system: T1, AM79 EPSPS; assay: Pi release (Lanzetta reagent, […] nm); Michaelis-Menten fit; format: biochemical, uncultured soil bacterium; details: 1 mM S3P, no glyphosate, 50 mM HEPES-NaOH pH 7.0, 100 mM KCl, 2 mM DTT, 25 °C; read-out: K m (PEP; μM)
T1 construct: gene aroA; aroA in pET-28a, stop codon removed so two His tags (N- and C-terminal), E. coli Rosetta (DE3), Ni-NTA purified; printed residues Ala107, Phe114, Ala355, His356, Glu357

G2 EPSPS = target: T2, G2 EPSPS (Pseudomonas fluorescens, UniProt A1Z0H6); assay: Pi release (Lanzetta reagent, […] nm); Km(obs) of PEP versus glyphosate; format: biochemical; details: 1 mM S3P, varied PEP, 50 mM HEPES-NaOH pH 7.0, 100 mM KCl, 2 mM DTT, 25 °C; competitive with PEP; read-out: K i (glyphosate; μM)
T2 construct: gene aroA

AM79 EPSPS [2] = target: T1, AM79 EPSPS; assay: as above; format: biochemical, uncultured soil bacterium; details: 1 mM S3P, varied PEP, 50 mM HEPES-NaOH pH 7.0, 100 mM KCl, 2 mM DTT, 25 °C; competitive with PEP; read-out: K i (glyphosate; μM)
A1501 EPSPS = target: T3, A1501 EPSPS (Stutzerimonas stutzeri, UniProt A4VLZ3); assay: as above; format: biochemical; details: 1 mM S3P, varied PEP, 50 mM HEPES-NaOH pH 7.0, 100 mM KCl, 2 mM DTT, 25 °C; competitive with PEP; read-out: K i (glyphosate; μM)
T3 construct: gene aroA

SMILES	Km (AM79 EPSPS [1]) [µM]	Ki (G2 EPSPS) [µM]	Ki (AM79 EPSPS [2]) [µM]	Ki (A1501 EPSPS) [µM]
C=C(OP(=O)(O)O)C(=O)O [PEP]	14.59 ± 0.11			
O=C(O)CNCP(=O)(O)O [glyphosate, N-phosphonomethyl glycine]		44.7 ± 5.2	154 ± 4.06	467 ± 30.2
